The values that follow come from ChEMBL document CHEMBL2074033, “In vivo imaging of hepatobiliary transport function mediated by multidrug resistance associated protein and P-glycoprotein” (Cancer Chemother Pharmacol, 2004).

This series addresses ATP-dependent translocase ABCB1 (Homo sapiens, UniProt P08183). As to the kind of experiment: TP_TRANSPORTER: cell accumulation in GLP4/P-gp cells. It counts as functional, cell-based.

Chain of ATP-dependent translocase ABCB1 (P08183 whole entry): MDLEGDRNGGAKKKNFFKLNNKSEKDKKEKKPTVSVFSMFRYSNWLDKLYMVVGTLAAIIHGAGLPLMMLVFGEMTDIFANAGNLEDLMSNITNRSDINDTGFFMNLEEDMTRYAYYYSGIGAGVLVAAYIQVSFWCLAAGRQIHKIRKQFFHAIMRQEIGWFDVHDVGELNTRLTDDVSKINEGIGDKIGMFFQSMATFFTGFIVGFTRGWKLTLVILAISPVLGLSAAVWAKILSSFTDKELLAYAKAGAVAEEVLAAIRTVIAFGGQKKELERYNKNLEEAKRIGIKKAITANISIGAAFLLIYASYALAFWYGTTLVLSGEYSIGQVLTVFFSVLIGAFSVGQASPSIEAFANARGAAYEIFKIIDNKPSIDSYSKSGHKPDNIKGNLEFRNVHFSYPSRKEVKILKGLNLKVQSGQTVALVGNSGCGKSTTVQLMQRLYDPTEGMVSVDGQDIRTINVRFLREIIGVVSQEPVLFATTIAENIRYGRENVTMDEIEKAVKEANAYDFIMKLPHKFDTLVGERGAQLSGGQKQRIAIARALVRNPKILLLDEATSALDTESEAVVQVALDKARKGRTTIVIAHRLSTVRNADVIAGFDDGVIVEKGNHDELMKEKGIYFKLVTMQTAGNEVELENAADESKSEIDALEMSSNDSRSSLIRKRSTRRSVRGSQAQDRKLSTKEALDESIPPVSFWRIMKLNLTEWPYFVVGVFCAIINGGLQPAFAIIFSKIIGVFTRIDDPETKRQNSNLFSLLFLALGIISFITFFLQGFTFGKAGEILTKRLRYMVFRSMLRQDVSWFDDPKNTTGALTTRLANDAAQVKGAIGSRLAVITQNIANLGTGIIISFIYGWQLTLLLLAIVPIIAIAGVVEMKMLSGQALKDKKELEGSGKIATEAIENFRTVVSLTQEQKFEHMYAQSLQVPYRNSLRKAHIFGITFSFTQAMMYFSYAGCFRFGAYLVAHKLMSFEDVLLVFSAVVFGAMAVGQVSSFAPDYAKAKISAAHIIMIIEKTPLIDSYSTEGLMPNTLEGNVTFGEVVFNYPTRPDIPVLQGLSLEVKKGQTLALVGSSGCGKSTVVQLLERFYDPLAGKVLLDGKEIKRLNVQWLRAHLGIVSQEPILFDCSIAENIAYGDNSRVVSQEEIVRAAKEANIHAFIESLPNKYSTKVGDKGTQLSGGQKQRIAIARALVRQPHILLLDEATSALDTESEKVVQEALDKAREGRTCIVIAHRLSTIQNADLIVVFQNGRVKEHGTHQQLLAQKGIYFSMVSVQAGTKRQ

On to TECHNETIUM TC 99M DISOFENIN, for which the Activity entry is “is not a substrate [-]”.
